Results: the NIST ThermoML archive (doi:10.1016/j.fluid.2016.08.035)
Numbers after ± are expanded uncertainties.

Columns and labels:
[1] = xn = mol fraction of the nth substance listed; conditions: 101 kPa, Liquid, x2 = 0; for viscosity: Falling or rolling sphere viscometry; for speed of sound: Sing-around technique in a fixed-path interferometer; for mass density: Vibrating tube method
[2] = molar heat capacity at constant pressure; xn = mol fraction of the nth substance listed; conditions: 101 kPa, Liquid, DSC, x2 = 0

Compound	viscosity ([1]; 278.15 K)	speed of sound ([1]; 278.15 K)	mass density ([1]; 278.15 K)	viscosity ([1]; 298.15 K)	speed of sound ([1]; 298.15 K)	mass density ([1]; 298.15 K)	viscosity ([1]; 318.15 K)	speed of sound ([1]; 318.15 K)	mass density ([1]; 318.15 K)	viscosity ([1]; 338.15 K)	speed of sound ([1]; 338.15 K)	mass density ([1]; 338.15 K)	molar heat capacity at constant pressure ([2]; 278.15 K)	molar heat capacity at constant pressure ([2]; 298.15 K)	molar heat capacity at constant pressure ([2]; 318.15 K)	molar heat capacity at constant pressure ([2]; 338.15 K)
CCCCCCCCCC [decane] + CC12CCC(CC1)C(C)(C)O2	1.19 ± 0.04 mPa·s	1315 ± 1.5 m/s	741.18 ± 0.24 kg/m3	0.86 ± 0.04 mPa·s	1234.7 ± 1.5 m/s	726.11 ± 0.24 kg/m3	0.66 ± 0.04 mPa·s	1156.6 ± 1.5 m/s	710.89 ± 0.24 kg/m3	0.54 ± 0.04 mPa·s	1080.5 ± 1.5 m/s	695.42 ± 0.25 kg/m3	305.94 ± 12 J/K/mol	314.4 ± 12 J/K/mol	323.94 ± 13 J/K/mol	334.32 ± 13 J/K/mol
CCCCCC [hexane] + CC12CCC(CC1)C(C)(C)O2	0.39 ± 0.04 mPa·s	1169 ± 1.5 m/s	673.1 ± 0.25 kg/m3	0.34 ± 0.04 mPa·s	1078.2 ± 1.5 m/s	655.3 ± 0.25 kg/m3	0.3 ± 0.04 mPa·s	988.59 ± 1.5 m/s	636.71 ± 0.25 kg/m3	0.26 ± 0.04 mPa·s	901.09 ± 1.5 m/s	617.44 ± 0.26 kg/m3	188.32 ± 7.3 J/K/mol	194.96 ± 7.5 J/K/mol	201.96 ± 7.8 J/K/mol	208.99 ± 8.1 J/K/mol
CCCCCCCC [octane] + CC12CCC(CC1)C(C)(C)O2	0.68 ± 0.04 mPa·s	1256.7 ± 1.3 m/s	714.55 ± 0.17 kg/m3	0.53 ± 0.04 mPa·s	1172.7 ± 1.2 m/s	698.51 ± 0.17 kg/m3	0.43 ± 0.04 mPa·s	1090.7 ± 1.2 m/s	682.19 ± 0.18 kg/m3	0.37 ± 0.04 mPa·s	1010.7 ± 1.2 m/s	665.43 ± 0.18 kg/m3	246.17 ± 9.5 J/K/mol	253.89 ± 9.8 J/K/mol	262.16 ± 10 J/K/mol	270.96 ± 10 J/K/mol
